Experimental data reported in patent US9173952B2, “Mitochondrial penetrating peptides as carriers for antimicrobials” (priority 2010, dated 2015).
In brackets after ≈: the same amount, converted by molar mass. Entries after “also recorded” stand apart in the source; their conditions may differ. Where two headings read alike, the source gives them in different places. Blank lines part the entries; values can stand above or below the compound they belong to. Starred links: 1 amine or outer side, 2 acyl side, 3 side chain; linkers in the order of their positions; H or OH if unused. Non-standard residues stand in square brackets, D forms with d. Residues, ends and D or L forms follow the SMILES beside them. *: point of attachment. DAMPA = CN(Cc1cnc2nc(N)nc(N)c2n1)c1ccc(C(=O)*)cc1; γGlu = O=C(O)[C@H](CCC(=O)[*:2])N[*:1]; Cha = N[C@@H](CC1CCCCC1)C(=O)O

Assays:
HeLa cells [1] = experiment: Measurement of mitochondrial membrane potential (JC-1, flow cytometry); assay type: cell-based, human; conditions: Mtx-Fxr3 16 μM 72 hours, FCCP 10 μM 6 minutes
Procedure: HeLa cells were seeded in at 6,250 cells per well in 24 well plates. […] Carbonyl cyanide 4-(trifluoromethoxy)phenylhydrazone (FCCP) was added at 10 μM for 6 minutes prior to analysis to disrupt the mitochondrial membrane potential. The mitchondrial membrane potential sensitive dye JC-1 (Invitrogen, Carlsbad Calif.) was added at 5 μg/mL for 10 minutes at 37° C. Cells were washed with PBS and harvested as described above. Samples were subsequently analyzed by flow cytometry on a BD FACSCanto flow cytometer (BD Biosciences) with excitation at 488 nm and emmission wavelengths of 530 nm and 585 nm collected. Ratio of these two emmission wavelengths was used to measure changes in mitochondrial membrane potential.

E. faecalis (ATCC 29212) = experiment: microbe, parasite or virus in culture; assay type: cell-based, Enterococcus faecalis
Procedure: (§1) Cell Culturing Conditions. HeLa cells were cultured in MEM alpha (Invitrogen, Carlsbad) supplemented with 10% (v/v) FBS at 37° C. with 5% CO2. Escherichia coli strain JW5503 from the Keio collection^12 (F−, Δ(araD-araB)567, ΔlacZ4787(:rrnB-3), λ^−, ΔtolC732:kan, rph-1, Δ(rhaD-rhaB)568, hsdR514) was grown on solid LB-agar or in LB liquid media supplemented with 50 μg/mL kanamycin at 37° C. Strains harboring the pCA24N plasmid were additionally grown with chloramphenicol at 20 μg/mL. B. subtilis was grown in LB media. S. aureus and E. faecalis were grown in Trypticase Soy Broth (TSB). S. pneumoniae were grown in TSB+5% defibrinated sheep's blood at 37° C. in an atmosphere of 5% CO2.
(§2) Minimum inhibitory concentration (MIC) determinations were performed to characterize the effect of each compound on bacterial growth. Briefly, overnight cultures were subcultured at 1:100 and grown to and OD600 of 0.5. Cells were Diluted 1:10000 into fresh media with test compounds. Cells were incubated for 16 hours at 37° C. Growth was monitored at OD600. Multi-copy suppression of compound toxicity was accomplished by inducing FolA (DHFR) expression from the pCA24N plasmid with 0.1 mM IPTG prior the incubation with test compounds. Compound toxicity was assessed in LB media for E. coli. […]

[2] = tested on: S. pneumoniae (ATCC 49619); experiment: microbe, parasite or virus in culture; assay type: cell-based, Streptococcus pneumoniae
Procedure: Minimum inhibitory concentration (MIC) determinations were performed to characterize the effect of each compound on bacterial growth. Briefly, overnight cultures were subcultured at 1:100 and grown to and OD600 of 0.5. Cells were Diluted 1:10000 into fresh media with test compounds. Cells were incubated for 16 hours at 37° C. Growth was monitored at OD600. […] For S. aureus B. subtilis, S. pneumonaie, and E. faecalis the defined media Mem-alpha minus nucleotides (Invitrogen, Carlsbad Calif.) was used to control for variability in thymidine content of undefined media. The final dilution into media was at 1:2000 for S. pneumoniae, and E. faecalis. 3% laked horse blood was added to the media for S. pnemoniae.

MRSA (ATCC BAA-1720) = experiment: microbe, parasite or virus in culture; assay type: cell-based, methicillin-resistant S. aureus
Procedure: as §1, §2

B. subtilis = experiment: microbe, parasite or virus in culture; assay type: cell-based, Bacillus subtilis
Procedure: as §1, §2

S. aureus (ATCC 29213) = experiment: microbe, parasite or virus in culture; assay type: cell-based, Staphylococcus aureus
Procedure: as §1, §2

E. coli strain JW5503 = experiment: microbe, parasite or virus in culture; assay type: cell-based, Escherichia coli
Procedure: as §1, §2

[3] = Analysis of cell toxicity (HeLa), CCK-8 viability; assay type: cell-based; conditions: human, HeLa cells, 72-hour incubation, read-out: LD50 (50% lethal dose, concentration where 50% toxicity is observed)
Procedure: HeLa cells were cultured as described above. Cells were seeded in 96-well flat bottom tissue culture plates (Starsted, N.C.) at a density of 1500 cells per well. The culture media was removed and cells were washed with MEM-alpha (minus nucleotides). […] Cellular viability was analyzed after the indicated times using the CCK-8 viability dye (Dojindo, Rockville, Md.) at an absorbance of 450 nm.

HeLa cells [4] = experiment: Measurement of cellular ATP levels; assay type: cell-based, human; conditions: Mtx-Fxr3 16 μM 16 hours, rotenone 100 nM 1 hour
Procedure: HeLa cells were seeded at a density of 50,000 cells per well one day prior to experiments. […] After treatment, cells were washed with PBS, harvested with trypsin/EDTA for 7 min at 37° C. Complete media was added to terminate the reaction and cells were collected by centrifugation (8 min at 700×g) and washed with PBS. Cells were lysed with 40 μl 1% TCA/4 mM EDTA for 20 minutes on ice, followed by 20 μl 1M Tris buffer pH 7.4. ATP levels were assessed using the ATP Bioluminescent Assay Kit (Sigma, Saint Louis Mich.) and a Spectramax M5 plate reader (Molecular Devices, Sunnyvale Calif.).

SMILES: N#CC(C#N)=NNc1ccc(OC(F)(F)F)cc1 [FCCP, Carbonyl cyanide 4-(trifluoromethoxy)phenylhydrazone, reference compound]
effect on mitochondrial membrane potential (HeLa cells [1]): significant decrease in membrane potential

MIC (E. faecalis (ATCC 29212); ATCC 29212): > 16 µM | MIC ([2]; ATCC 49619): > 16 µM | MIC (MRSA (ATCC BAA-1720); ATCC BAA-1720): > 32 µM | MIC (B. subtilis): > 16 µM | MIC (S. aureus (ATCC 29213); ATCC 29213): > 32 µM
SMILES: N=C(N)NCCC[C@@H](NC(=O)[C@H](CC1CCCCC1)NC(=O)[C@@H](CCCNC(=N)N)NC(=O)[C@H](CC1CCCCC1)NC(=O)[C@@H](CCCNC(=N)N)NC(=O)[C@@H](N)CC1CCCCC1)C(N)=O [Fxr3, FxrFxrFxr] (H-[Cha][dR][Cha][dR][Cha][dR]-NH2; N-terminus assumed)

SMILES: CN(Cc1cnc2nc(N)nc(N)c2n1)c1ccc(C(=O)N[C@@H](CCC(=O)O)C(=O)O)cc1 [Mtx, methotrexate, reference compound]
MIC (E. faecalis (ATCC 29212); Enterococcus faecalis, ATCC29212, E. faecalis (ATCC 29212), Mem-alpha minus nucleotides): 4 µM (≈ 1.82 µg/mL) | MIC ([2]; Streptococcus pneumoniae, ATCC49619, S. pneumoniae (ATCC 49619), Mem-alpha minus nucleotides, 3% laked horse blood): 0.5 µM (≈ 0.227 µg/mL) | MIC (MRSA (ATCC BAA-1720); Staphylococcus aureus, MRSA (ATCC BAA-1720)): > 32 µM | MIC (E. coli strain JW5503; Escherichia coli, JW5503, 16 h, read-out: MIC (minimum inhibitory concentration)): > 32 µM | MIC (B. subtilis; Bacillus subtilis, B. subtilis, Mem-alpha minus nucleotides): > 16 µM | MIC (S. aureus (ATCC 29213); Staphylococcus aureus, ATCC29213, S. aureus (ATCC 29213), Mem-alpha minus nucleotides): > 32 µM

SMILES: CN(Cc1cnc2nc(N)nc(N)c2n1)c1ccc(C(=O)N[C@@H](CCC(=O)N[C@@H](CC2CCCCC2)C(=O)N[C@H](CCCNC(=N)N)C(=O)N[C@@H](CC2CCCCC2)C(=O)N[C@H](CCCNC(=N)N)C(=O)N[C@@H](CC2CCCCC2)C(=O)N[C@H](CCCNC(=N)N)C(N)=O)C(=O)O)cc1 [Mtx-Fxr3, Mtx-FxrFxrFxr] ({DAMPA-γGlu}-[Cha][dR][Cha][dR][Cha][dR]-NH2)
effect on mitochondrial membrane potential (HeLa cells [1]): not perturb the mitochondrial membrane potential; also recorded: did not affect | MIC (minimum inhibitory concentration) (E. coli strain JW5503; strain JW5503, 16 h): 0.5 µM (≈ 0.691 µg/mL) | CC50 at 72 h [3]: > 16 µM | effect on cellular ATP levels (HeLa cells [4]): did not result in a decrease in cellular ATP levels; also recorded: did not affect
